Laboratory results: ChEMBL document CHEMBL1142342, “Lignans from the fruits of Forsythia suspensa” (Bioorg Med Chem Lett, 2008)
Active and inactive are the calls of the source. No cut-off for these calls is given here.

Key:
[1] = test system: LLC-PK1; test: Protective effect against 3-morpholinosydnonimine-induced cell death in pig LLC-PK1 cells assessed as viability at 50 uM after 1 hr by MTT assay; assay type: functional; conditions: Sus scrofa, LLC-PK1, 1 h; read-out: Activity
[2] = test system: LLC-PK1; test: Cytotoxicity against pig LLC-PK1 cells; assay type: cell-based, Sus scrofa
[3] = test system: LLC-PK1; test: Protective effect against 3-morpholinosydnonimine-induced cell death in pig LLC-PK1 cells after 1 hr by MTT assay; assay type: functional, cell-based; conditions: Sus scrofa
[4] = test system: LLC-PK1; test: Inhibition of 3-morpholinosdynonimine-induced LDH release in pig LLC-PK1 cells at 10 uM after 24 hrs; assay type: functional, cell-based; conditions: Sus scrofa
[5] = test system: LLC-PK1; test: Inhibition of 3-morpholinosydnonimine-induced LDH release in pig LLC-PK1 cells at 50 uM after 24 hrs; assay type: functional, cell-based; conditions: Sus scrofa
[6] = test system: LLC-PK1; test: Inhibition of 3-morpholinosydnonimine-induced LDH release in pig LLC-PK1 cells after 24 hrs; assay type: functional, cell-based; conditions: Sus scrofa

SMILES | viability at 50 µM [1] [%] | Activity [2] | Activity [3] | Activity [4] | Activity [5] | Activity [6]
COc1cc(O)cc([C@H]2OC[C@H](C(=O)c3ccc(O)c(OC)c3)[C@@H]2CO)c1 [FORSYTHIALAN A] | 95 | Non-toxic | Dose-dependent effect | Active | Active | –
COc1cc(O)cc([C@H]2OC[C@H](C(=O)c3ccc(OC)c(OC)c3)[C@@H]2CO)c1 [FORSYTHIALAN B] | 85 | Non-toxic | Dose-dependent effect | – | – | Active
